Test results as given in ChEMBL document CHEMBL1201862, “PubChem BioAssay data set” (2004).
Active and inactive are the calls of the source.

Experiments:
[1] = target: T1, Replicative DNA helicase DnaB (Mycobacterium tuberculosis, UniProt P9WMR3); test: DnaB intein splicing inhibitors, dose response, biochemical, cell-free fluorescence (AID 449749); format: functional
T1 sequence (P9WMR3 whole entry): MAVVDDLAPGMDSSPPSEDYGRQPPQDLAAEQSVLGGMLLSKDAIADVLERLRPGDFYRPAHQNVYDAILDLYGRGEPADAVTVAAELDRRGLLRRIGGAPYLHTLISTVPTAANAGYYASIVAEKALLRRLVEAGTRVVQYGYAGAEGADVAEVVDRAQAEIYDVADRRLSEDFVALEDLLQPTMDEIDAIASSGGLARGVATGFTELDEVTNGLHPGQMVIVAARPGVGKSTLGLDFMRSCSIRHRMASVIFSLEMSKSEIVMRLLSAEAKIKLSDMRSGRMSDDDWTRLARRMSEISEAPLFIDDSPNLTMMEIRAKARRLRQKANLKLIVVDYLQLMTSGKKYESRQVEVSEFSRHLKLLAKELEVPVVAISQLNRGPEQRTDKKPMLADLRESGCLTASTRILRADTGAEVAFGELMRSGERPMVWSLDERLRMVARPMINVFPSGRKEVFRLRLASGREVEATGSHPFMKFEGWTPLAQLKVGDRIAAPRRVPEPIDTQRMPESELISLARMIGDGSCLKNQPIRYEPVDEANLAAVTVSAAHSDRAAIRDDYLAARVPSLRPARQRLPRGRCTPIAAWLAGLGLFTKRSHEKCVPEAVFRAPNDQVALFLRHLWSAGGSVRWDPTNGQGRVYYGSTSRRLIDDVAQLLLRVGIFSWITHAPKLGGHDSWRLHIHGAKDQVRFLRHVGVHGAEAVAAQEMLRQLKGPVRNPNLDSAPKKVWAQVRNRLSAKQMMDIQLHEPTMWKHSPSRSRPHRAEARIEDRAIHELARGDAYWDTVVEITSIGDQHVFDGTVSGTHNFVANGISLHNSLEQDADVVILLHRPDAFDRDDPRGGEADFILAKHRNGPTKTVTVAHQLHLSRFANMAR

[2] = target: Neurotensin receptor type 1 (Homo sapiens, UniProt P30989); format: functional;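 further: Image-based confirmatory dose-response assay measuring agonist activity at NTR1; NTR1-expressing U2OS osteosarcoma cells imaged for beta-arrestin GFP spot formation; agonist potency where compounds increase beta-arrestin recruitment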
Protein RecA = target: T2, Protein RecA (Mycobacterium tuberculosis, UniProt P9WHJ3); test: Fluorescence Cell-Free Homogeneous Dose Retest to Identify Inhibitors of RecA-Intein Splicing Activity. [Related pubchem assays (depositor defined):AID2097, AID2223, AID489010, AID492950]; format: functional
T2 sequence (P9WHJ3 whole entry): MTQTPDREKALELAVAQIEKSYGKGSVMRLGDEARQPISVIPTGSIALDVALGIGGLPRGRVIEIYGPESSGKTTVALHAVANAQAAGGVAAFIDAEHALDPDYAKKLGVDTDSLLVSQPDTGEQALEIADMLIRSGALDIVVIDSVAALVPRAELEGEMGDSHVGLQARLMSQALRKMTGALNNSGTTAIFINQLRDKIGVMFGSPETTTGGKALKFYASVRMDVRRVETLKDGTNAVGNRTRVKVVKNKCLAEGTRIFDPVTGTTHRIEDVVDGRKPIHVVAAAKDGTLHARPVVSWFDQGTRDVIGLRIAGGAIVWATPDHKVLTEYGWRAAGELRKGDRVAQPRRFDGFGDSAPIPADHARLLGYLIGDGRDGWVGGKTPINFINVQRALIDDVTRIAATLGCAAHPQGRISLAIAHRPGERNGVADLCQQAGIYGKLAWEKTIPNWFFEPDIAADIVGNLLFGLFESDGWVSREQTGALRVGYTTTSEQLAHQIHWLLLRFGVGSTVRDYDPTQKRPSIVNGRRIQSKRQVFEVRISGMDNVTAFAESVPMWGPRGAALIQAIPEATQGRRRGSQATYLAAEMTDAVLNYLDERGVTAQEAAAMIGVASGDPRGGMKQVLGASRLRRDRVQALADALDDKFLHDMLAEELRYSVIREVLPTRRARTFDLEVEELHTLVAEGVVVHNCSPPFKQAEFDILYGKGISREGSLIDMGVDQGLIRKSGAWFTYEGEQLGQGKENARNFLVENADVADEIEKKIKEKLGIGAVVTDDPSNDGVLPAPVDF

X-box-binding protein 1 = X-box-binding protein 1 (Homo sapiens, UniProt P17861); format: functional, Cricetulus griseus;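 further: confirmatory dose-response counter-screen serving a CHOP assay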
[3] = target: G-protein coupled receptor 35 (Homo sapiens, UniProt Q9HC97); test: SAR analysis of Antagonists of the GPR35 Receptor using an Image-Based Assay - Set 5. [Related pubchem assays (depositor defined):AID2058, AID2079]; format: functional
[4] = target: G-protein coupled receptor 55 (Homo sapiens, UniProt Q9Y2T6); test: SAR Analysis of Selective Antagonists of GPR55 using an Image-Based Assay - Set 3. [Related pubchem assays (depositor defined):AID2058, AID2079]; format: functional
[5] = target: Voltage-dependent T-type calcium channel subunit alpha-1H (Homo sapiens, UniProt O95180); test: Cav3.2 T-type channel inhibitors, cell-based, synthetic library set 1, calcium flux (AID 493022); format: functional
Sequence of Voltage-dependent T-type calcium channel subunit alpha-1H (O95180 whole entry): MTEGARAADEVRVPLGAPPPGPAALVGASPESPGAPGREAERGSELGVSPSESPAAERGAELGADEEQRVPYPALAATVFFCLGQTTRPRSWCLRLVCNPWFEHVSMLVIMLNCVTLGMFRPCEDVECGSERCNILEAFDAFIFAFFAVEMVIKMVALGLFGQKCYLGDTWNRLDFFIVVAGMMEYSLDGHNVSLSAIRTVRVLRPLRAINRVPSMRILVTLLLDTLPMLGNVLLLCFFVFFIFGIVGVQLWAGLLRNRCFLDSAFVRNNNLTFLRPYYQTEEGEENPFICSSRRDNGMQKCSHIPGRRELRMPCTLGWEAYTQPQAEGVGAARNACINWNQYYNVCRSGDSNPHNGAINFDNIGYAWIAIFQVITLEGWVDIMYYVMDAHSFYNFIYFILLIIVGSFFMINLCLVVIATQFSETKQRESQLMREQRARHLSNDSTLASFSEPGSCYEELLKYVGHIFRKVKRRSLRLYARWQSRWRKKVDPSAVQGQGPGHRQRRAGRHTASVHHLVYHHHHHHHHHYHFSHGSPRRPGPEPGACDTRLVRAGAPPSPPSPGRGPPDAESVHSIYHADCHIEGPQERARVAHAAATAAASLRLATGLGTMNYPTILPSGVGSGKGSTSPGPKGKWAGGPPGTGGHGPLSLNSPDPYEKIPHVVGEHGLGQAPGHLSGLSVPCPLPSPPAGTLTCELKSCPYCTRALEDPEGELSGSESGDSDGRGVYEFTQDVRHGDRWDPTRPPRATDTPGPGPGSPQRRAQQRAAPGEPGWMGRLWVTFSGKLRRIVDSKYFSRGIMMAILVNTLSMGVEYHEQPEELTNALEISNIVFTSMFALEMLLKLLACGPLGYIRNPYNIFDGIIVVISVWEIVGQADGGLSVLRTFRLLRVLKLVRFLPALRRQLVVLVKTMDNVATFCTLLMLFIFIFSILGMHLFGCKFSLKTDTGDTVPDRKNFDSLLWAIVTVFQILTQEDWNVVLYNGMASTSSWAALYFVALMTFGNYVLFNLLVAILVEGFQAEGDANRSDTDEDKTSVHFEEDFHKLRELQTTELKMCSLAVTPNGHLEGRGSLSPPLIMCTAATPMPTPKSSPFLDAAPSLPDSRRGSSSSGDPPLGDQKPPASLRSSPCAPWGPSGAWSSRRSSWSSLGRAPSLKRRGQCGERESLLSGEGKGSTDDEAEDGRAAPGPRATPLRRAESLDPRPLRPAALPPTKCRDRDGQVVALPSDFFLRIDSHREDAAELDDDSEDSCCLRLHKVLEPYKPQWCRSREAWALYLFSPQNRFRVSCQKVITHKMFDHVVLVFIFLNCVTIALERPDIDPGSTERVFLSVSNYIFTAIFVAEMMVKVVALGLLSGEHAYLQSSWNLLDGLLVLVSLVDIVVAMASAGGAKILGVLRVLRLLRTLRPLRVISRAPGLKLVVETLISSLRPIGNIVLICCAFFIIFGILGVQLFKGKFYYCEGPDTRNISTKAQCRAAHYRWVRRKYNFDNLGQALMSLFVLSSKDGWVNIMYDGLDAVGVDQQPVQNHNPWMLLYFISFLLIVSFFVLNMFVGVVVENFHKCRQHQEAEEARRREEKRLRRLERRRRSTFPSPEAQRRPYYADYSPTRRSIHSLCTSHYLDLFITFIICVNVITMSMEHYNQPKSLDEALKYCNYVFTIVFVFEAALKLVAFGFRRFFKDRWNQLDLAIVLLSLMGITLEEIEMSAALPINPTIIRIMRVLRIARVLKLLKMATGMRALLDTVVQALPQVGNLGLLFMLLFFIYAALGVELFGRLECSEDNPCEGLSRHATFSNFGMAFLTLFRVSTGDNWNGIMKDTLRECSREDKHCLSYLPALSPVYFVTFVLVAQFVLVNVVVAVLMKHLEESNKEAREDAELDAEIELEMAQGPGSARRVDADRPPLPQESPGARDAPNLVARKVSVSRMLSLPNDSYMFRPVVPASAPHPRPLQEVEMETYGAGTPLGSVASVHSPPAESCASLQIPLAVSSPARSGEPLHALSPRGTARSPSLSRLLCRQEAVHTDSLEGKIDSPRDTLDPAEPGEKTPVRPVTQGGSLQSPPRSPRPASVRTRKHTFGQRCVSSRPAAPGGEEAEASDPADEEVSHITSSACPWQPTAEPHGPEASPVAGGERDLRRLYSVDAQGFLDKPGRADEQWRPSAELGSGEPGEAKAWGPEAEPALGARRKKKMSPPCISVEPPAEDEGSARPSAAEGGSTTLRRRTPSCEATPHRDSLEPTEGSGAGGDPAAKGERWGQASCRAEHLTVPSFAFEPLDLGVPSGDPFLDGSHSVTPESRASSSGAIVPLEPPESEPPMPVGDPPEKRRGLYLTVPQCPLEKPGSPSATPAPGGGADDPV

Sequence of G-protein coupled receptor 55 (Q9Y2T6 whole entry): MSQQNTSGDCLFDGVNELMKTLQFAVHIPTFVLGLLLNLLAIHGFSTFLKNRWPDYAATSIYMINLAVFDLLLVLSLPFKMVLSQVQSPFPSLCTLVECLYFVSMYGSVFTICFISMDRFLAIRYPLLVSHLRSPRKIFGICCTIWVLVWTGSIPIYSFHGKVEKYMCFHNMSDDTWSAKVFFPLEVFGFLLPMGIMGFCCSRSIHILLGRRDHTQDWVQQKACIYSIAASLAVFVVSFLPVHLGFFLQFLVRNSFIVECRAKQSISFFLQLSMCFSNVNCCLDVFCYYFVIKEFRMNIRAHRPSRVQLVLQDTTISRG
Sequence of Neurotensin receptor type 1 (P30989 whole entry): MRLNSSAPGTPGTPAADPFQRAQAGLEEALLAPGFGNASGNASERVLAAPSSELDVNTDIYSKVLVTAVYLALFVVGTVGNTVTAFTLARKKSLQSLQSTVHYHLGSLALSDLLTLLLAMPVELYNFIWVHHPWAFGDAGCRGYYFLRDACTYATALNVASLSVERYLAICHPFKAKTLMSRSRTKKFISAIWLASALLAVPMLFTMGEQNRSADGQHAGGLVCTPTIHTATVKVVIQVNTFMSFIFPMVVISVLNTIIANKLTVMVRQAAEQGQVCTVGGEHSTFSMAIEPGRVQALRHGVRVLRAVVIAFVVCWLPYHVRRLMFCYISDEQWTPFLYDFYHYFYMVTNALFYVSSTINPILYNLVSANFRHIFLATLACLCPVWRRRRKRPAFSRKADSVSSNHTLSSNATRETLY
Sequence of G-protein coupled receptor 35 (Q9HC97 whole entry): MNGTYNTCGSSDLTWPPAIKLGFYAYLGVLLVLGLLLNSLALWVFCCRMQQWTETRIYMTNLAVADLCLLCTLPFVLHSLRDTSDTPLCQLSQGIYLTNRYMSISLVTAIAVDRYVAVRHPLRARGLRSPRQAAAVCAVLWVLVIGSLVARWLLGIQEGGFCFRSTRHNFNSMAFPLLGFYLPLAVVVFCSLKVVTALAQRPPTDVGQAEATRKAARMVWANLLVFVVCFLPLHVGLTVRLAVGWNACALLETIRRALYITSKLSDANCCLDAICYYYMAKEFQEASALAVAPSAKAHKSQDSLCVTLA
Sequence of X-box-binding protein 1 (P17861 whole entry): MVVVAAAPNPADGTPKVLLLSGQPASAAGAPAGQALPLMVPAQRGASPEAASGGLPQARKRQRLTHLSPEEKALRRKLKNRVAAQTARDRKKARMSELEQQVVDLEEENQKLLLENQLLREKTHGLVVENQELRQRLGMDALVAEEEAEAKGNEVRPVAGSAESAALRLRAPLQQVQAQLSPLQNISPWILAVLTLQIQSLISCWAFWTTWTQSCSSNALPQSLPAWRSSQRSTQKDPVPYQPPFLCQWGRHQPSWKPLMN

With `CSc1nnc(NC(=O)C23CC4CC(CC(C4)C2)C3)s1` the AC50 [1] was > 380 µM (inactive), the EC50 [2] was 8.21 µM (active) and the EC50 (Protein RecA) was > 380 µM (inactive).

In the case of `CNc1nc(Sc2cccc(C(F)(F)F)c2)cc(C(F)(F)F)n1`, the “Absolute IC50 (XBP1)” value (X-box-binding protein 1) is reported as 10 µM.

With `COC(=O)c1cnn(-c2ccc(F)cc2F)c1/C=N/NC(=S)Nc1ccccc1` the IC50 [3] was 379 nM (active) and the IC50 [4] was > 32 µM (inactive).

In the case of `CC(Oc1ccccc1)C(=O)Nc1nnc(-c2ccc3c(c2)CCCC3)o1` (configuration not stated), the EC50 [5] is reported as 1.3 µM (active).
